According to PubChem BioAssay AID1259407 (Chemical Carcinogenesis Research Information System (CCRIS), 2018):
Calls of active or inactive are those of the source. The rule behind the calls is not given here.

Test system: CCRIS mutagenicity, Ames/micronucleus/aberration tests
Test: CCRIS mutagenicity studies
[1] = Test System: AMES SALMONELLA TYPHIMURIUM, Strain/Indicator: TA98, Metabolic Activation: NONE, Method: STANDARD PLATE
[2] = Test System: AMES SALMONELLA TYPHIMURIUM, Strain/Indicator: TA100, Metabolic Activation: NONE, Method: STANDARD PLATE
[3] = Test System: AMES SALMONELLA TYPHIMURIUM, Strain/Indicator: TA98, Metabolic Activation: RAT, LIVER, S-9, AROCLOR 1254, Method: STANDARD PLATE
[4] = Test System: AMES SALMONELLA TYPHIMURIUM, Strain/Indicator: TA100, Metabolic Activation: RAT, LIVER, S-9, AROCLOR 1254, Method: STANDARD PLATE
[5] = Test System: AMES SALMONELLA TYPHIMURIUM, Strain/Indicator: TA1535, Metabolic Activation: NONE, Method: STANDARD PLATE
[6] = Test System: AMES SALMONELLA TYPHIMURIUM, Strain/Indicator: TA1535, Metabolic Activation: RAT, LIVER, S-9, AROCLOR 1254, Method: STANDARD PLATE
[7] = Test System: AMES SALMONELLA TYPHIMURIUM, Strain/Indicator: TA1537, Metabolic Activation: NONE, Method: STANDARD PLATE
[8] = Test System: AMES SALMONELLA TYPHIMURIUM, Strain/Indicator: TA1537, Metabolic Activation: RAT, LIVER, S-9, AROCLOR 1254, Method: STANDARD PLATE
[9] = Test System: AMES SALMONELLA TYPHIMURIUM, Strain/Indicator: TA1538, Metabolic Activation: NONE, Method: STANDARD PLATE

In the case of `O=[N+]([O-])c1cccc(CO/N=C/c2nc3cc([N+](=O)[O-])ccc3n2Cc2ccc(F)cc2)c1`, the mutagenic call [1] is reported as “inactive; negative”, the mutagenic call (Test System: AMES SALMONELLA TYPHIMURIUM, Strain/Indicator: TA98, Metabolic Activation: RAT, LIVER, S-9, PHENOBARBITAL AND BETA-NAPHTHOFLAVONE, Method: STANDARD PLATE) is reported as “inactive; negative” and the mutagenic call [2] is reported as “inactive; negative”. The mutagenic call (Test System: AMES SALMONELLA TYPHIMURIUM, Strain/Indicator: TA100, Metabolic Activation: RAT, LIVER, S-9, PHENOBARBITAL AND BETA-NAPHTHOFLAVONE, Method: STANDARD PLATE) was “inactive; negative”.

`C/C=C/C=C/C=O` was tested, and the mutagenic call (Test System: AMES SALMONELLA TYPHIMURIUM, Strain/Indicator: TA98, Metabolic Activation: HAMSTER LIVER S-9, AROCLOR 1254 (30%), Method: PREINCUBATION) was “inactive; negative”, the mutagenic call (Test System: AMES SALMONELLA TYPHIMURIUM, Strain/Indicator: TA98, Metabolic Activation: HAMSTER, LIVER, S-9, AROCLOR 1254, Method: STANDARD PLATE) was “inactive; negative” and the mutagenic call (Test System: AMES SALMONELLA TYPHIMURIUM, Strain/Indicator: TA98, Metabolic Activation: NONE, Method: PREINCUBATION) was “inactive; negative”. For the same molecule, the mutagenic call [1] was “inactive; negative”, the mutagenic call (Test System: AMES SALMONELLA TYPHIMURIUM, Strain/Indicator: TA98, Metabolic Activation: RAT LIVER S-9, AROCLOR 1254 (30%), Method: PREINCUBATION) was “inactive; negative” and the mutagenic call [3] was “inactive; negative”. The mutagenic call (Test System: AMES SALMONELLA TYPHIMURIUM, Strain/Indicator: TA100, Metabolic Activation: HAMSTER LIVER S-9, AROCLOR 1254 (5%), Method: PREINCUBATION) was “active; positive”, the mutagenic call (Test System: AMES SALMONELLA TYPHIMURIUM, Strain/Indicator: TA100, Metabolic Activation: HAMSTER LIVER S-9, AROCLOR 1254 (10%), Method: PREINCUBATION) was “active; positive” and the mutagenic call (Test System: AMES SALMONELLA TYPHIMURIUM, Strain/Indicator: TA100, Metabolic Activation: HAMSTER, LIVER, S-9, AROCLOR 1254, Method: STANDARD PLATE) was “inactive; negative”. The mutagenic call (Test System: AMES SALMONELLA TYPHIMURIUM, Strain/Indicator: TA100, Metabolic Activation: NONE, Method: PREINCUBATION (THREEFOLD CELL DENSITY)) was “active; positive”, the mutagenic call [2] was “inactive; negative” and the mutagenic call (Test System: AMES SALMONELLA TYPHIMURIUM, Strain/Indicator: TA100, Metabolic Activation: RAT LIVER S-9, AROCLOR 1254 (5%), Method: PREINCUBATION) was “active; positive”. For the same molecule, the mutagenic call (Test System: AMES SALMONELLA TYPHIMURIUM, Strain/Indicator: TA100, Metabolic Activation: RAT LIVER S-9, AROCLOR 1254 (10%), Method: PREINCUBATION) was “active; positive”, the mutagenic call (Test System: AMES SALMONELLA TYPHIMURIUM, Strain/Indicator: TA100, Metabolic Activation: RAT, LIVER, S-9, AROCLOR 1254, Method: PREINCUBATION) was “active; positive” and the mutagenic call (Test System: AMES SALMONELLA TYPHIMURIUM, Strain/Indicator: TA100, Metabolic Activation: RAT, LIVER, S-9, AROCLOR 1254, Method: PREINCUBATION (THREEFOLD CELL DENSITY)) was “active; positive”. The mutagenic call [4] was “inactive; negative”, the mutagenic call (Test System: AMES SALMONELLA TYPHIMURIUM, Strain/Indicator: TA104, Metabolic Activation: NONE, Method: PREINCUBATION) was “active; positive” and the mutagenic call (Test System: AMES SALMONELLA TYPHIMURIUM, Strain/Indicator: TA1535, Metabolic Activation: HAMSTER LIVER S-9, AROCLOR 1254 (30%), Method: PREINCUBATION) was “inactive; negative”. For the same molecule, the mutagenic call (Test System: AMES SALMONELLA TYPHIMURIUM, Strain/Indicator: TA1535, Metabolic Activation: HAMSTER, LIVER, S-9, AROCLOR 1254, Method: STANDARD PLATE) was “inactive; negative”, the mutagenic call (Test System: AMES SALMONELLA TYPHIMURIUM, Strain/Indicator: TA1535, Metabolic Activation: NONE, Method: PREINCUBATION) was “inactive; negative” and the mutagenic call [5] was “inactive; negative”. The mutagenic call (Test System: AMES SALMONELLA TYPHIMURIUM, Strain/Indicator: TA1535, Metabolic Activation: RAT LIVER S-9, AROCLOR 1254 (30%), Method: PREINCUBATION) was “inactive; negative”, the mutagenic call [6] was “inactive; negative” and the mutagenic call (Test System: AMES SALMONELLA TYPHIMURIUM, Strain/Indicator: TA1537, Metabolic Activation: HAMSTER, LIVER, S-9, AROCLOR 1254, Method: STANDARD PLATE) was “inactive; negative”. For the same molecule, the mutagenic call [7] was “inactive; negative”, the mutagenic call [8] was “inactive; negative” and the mutagenic call (Test System: AMES SALMONELLA TYPHIMURIUM, Strain/Indicator: TA1538, Metabolic Activation: HAMSTER, LIVER, S-9, AROCLOR 1254, Method: STANDARD PLATE) was “inactive; negative”. The mutagenic call [9] was “inactive; negative”, the mutagenic call (Test System: AMES SALMONELLA TYPHIMURIUM, Strain/Indicator: TA1538, Metabolic Activation: RAT, LIVER, S-9, AROCLOR 1254, Method: STANDARD PLATE) was “inactive; negative” and the mutagenic call (Test System: MOUSE LYMPHOMA, Strain/Indicator: L5178Y (TK+/TK-), Metabolic Activation: NONE, Method: SUSPENSION/PLATE) was “active; positive. reevaluation of results: positive”. For the same molecule, the mutagenic call (Test System: MOUSE LYMPHOMA, Strain/Indicator: L5178Y (TK+/TK-), Metabolic Activation: RAT, LIVER, S-9, AROCLOR 1254, Method: SUSPENSION/PLATE) was “inactive; negative. reevaluation of results: negative”.

In the case of `C=CCCCCCCCCCCC`, the mutagenic call (Test System: AMES SALMONELLA TYPHIMURIUM, Strain/Indicator: TA98, Metabolic Activation: MOUSE, LIVER, S-9, Method: STANDARD PLATE) is reported as “inactive; negative”, the mutagenic call [1] is reported as “inactive; negative” and the mutagenic call (Test System: AMES SALMONELLA TYPHIMURIUM, Strain/Indicator: TA100, Metabolic Activation: MOUSE, LIVER, S-9, Method: STANDARD PLATE) is reported as “inactive; negative”. For the same molecule, the mutagenic call [2] was “inactive; negative”, the mutagenic call [5] was “inactive; negative” and the mutagenic call [9] was “inactive; negative”.

With `O=[N+]([O-])c1cnc(CO)n1CCO` the mutagenic call [2] was “active; positive” and the mutagenic call [4] was “active; positive”.

For `CN1CCN(C2=Nc3cc(Cl)ccc3Nc3ccccc32)CC1`, the mutagenic call [1] was “inactive; negative”, the mutagenic call [3] was “inactive; negative” and the mutagenic call [2] was “inactive; negative”. For the same molecule, the mutagenic call [4] was “inactive; negative”, the mutagenic call [5] was “inactive; negative” and the mutagenic call [6] was “inactive; negative”. For the same molecule, the mutagenic call [7] was “inactive; negative” and the mutagenic call [8] was “inactive; negative”.

With `CNC(=O)c1cccc2c(Nc3ccc(NS(C)(=O)=O)cc3OC)c3cccc(C)c3nc12` the mutagenic call [1] was “inactive; negative”, the mutagenic call [3] was “inactive; negative” and the mutagenic call [2] was “inactive; negative”. The mutagenic call [4] was “inactive; negative”, the mutagenic call (Test System: AMES SALMONELLA TYPHIMURIUM, Strain/Indicator: TA102, Metabolic Activation: NONE, Method: STANDARD PLATE) was “active; positive” and the mutagenic call (Test System: AMES SALMONELLA TYPHIMURIUM, Strain/Indicator: TA102, Metabolic Activation: RAT, LIVER, S-9, AROCLOR 1254, Method: STANDARD PLATE) was “active; positive”. For the same molecule, the mutagenic call [7] was “active; positive”, the mutagenic call [8] was “active; positive” and the mutagenic call (Test System: CHINESE HAMSTER V-79, Strain/Indicator: V-79/6-THIOGUANINE, Metabolic Activation: NONE, Method: STANDARD PLATE) was “active; positive”. The mutagenic call (Test System: CHINESE HAMSTER V-79, Strain/Indicator: V-79/OUABAIN, Metabolic Activation: NONE, Method: STANDARD PLATE) was “inactive; negative”.
